Target: T1, angiotensin converting enzyme (Oryctolagus cuniculus, UniProt P12822)
T1 sequence (P12822 34-1310): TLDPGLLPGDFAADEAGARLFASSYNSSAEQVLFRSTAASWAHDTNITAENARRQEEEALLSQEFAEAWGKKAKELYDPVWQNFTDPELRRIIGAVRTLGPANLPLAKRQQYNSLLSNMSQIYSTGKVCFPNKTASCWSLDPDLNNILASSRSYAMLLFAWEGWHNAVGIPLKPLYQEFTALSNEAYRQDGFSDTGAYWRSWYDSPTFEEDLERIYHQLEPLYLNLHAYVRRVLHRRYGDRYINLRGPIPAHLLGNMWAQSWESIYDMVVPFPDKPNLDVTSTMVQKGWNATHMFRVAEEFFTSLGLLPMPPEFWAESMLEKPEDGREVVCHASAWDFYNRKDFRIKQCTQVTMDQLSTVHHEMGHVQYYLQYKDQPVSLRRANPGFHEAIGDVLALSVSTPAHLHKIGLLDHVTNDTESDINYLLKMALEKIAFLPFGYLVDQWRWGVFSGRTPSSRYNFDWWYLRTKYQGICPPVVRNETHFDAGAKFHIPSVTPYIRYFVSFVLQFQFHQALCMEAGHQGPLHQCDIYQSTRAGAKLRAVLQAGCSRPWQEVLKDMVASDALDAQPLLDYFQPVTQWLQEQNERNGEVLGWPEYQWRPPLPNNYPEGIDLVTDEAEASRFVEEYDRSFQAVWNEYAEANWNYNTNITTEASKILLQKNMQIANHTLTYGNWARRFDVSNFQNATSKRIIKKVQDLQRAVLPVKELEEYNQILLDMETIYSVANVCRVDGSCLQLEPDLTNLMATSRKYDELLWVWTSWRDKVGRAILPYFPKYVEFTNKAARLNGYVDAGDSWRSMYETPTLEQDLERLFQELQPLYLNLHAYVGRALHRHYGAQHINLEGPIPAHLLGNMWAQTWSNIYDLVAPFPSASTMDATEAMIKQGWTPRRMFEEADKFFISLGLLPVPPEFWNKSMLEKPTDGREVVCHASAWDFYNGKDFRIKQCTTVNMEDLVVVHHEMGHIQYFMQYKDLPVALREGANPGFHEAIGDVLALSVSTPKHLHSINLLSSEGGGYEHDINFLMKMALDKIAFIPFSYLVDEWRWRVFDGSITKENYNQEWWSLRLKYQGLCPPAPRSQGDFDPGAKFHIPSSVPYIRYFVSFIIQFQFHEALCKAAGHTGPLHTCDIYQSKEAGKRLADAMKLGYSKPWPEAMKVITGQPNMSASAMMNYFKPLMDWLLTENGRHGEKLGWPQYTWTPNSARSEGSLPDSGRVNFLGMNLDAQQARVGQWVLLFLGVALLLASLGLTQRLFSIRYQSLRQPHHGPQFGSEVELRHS
Assay: in vitro inhibition of angiotensin converting enzyme (cleavage of hippuryl-histidyl-leucine)
Type: biochemical
Settings: substrate hippuryl-histidyl-leucine 2 mM; potassium phosphate buffer pH 8.3, 100 mM; NaCl 300 mM; 24 minutes at 37° C.
Description: The activity of the compounds of formula I and the aforementioned salts in inhibiting angiotensin converting enzyme in vitro can be determined by the following test.
The method used is based on the method of Cushman and Cheung (Biochem. Pharmacol., 20. 1637-1648) incorporating the modifications introduced by Hayakari et al (Anal. Biochem., 84. 361-369). The substrate, which is hippuryl-histidyl-leucine, 2 mM, is incubated with angiotensin converting enzyme in the presence or absence of various concentrations of test substance in potassium phosphate buffer (pH 8.3; 100 mM) containing sodium chloride (300 mM) for 24 minutes at 37° C. (total value 500 μl). If the test substance is an ester, it is appropriate to cleave it by means of hog liver esterase before carrying out the test. The reaction is terminated by the addition of 3 ml of potassium phosphate buffer (pH 8.3; 200 mM) at 0° C. 2,4,6-Trichloro-s-triazine (3%) in 1.5 ml of dioxane and the mixture is agitated until the yellow chromophore has developed fully. The samples are then centrifuged to remove any precipitate which has formed. The yellow chromophore formed by the reaction of the 2,4,6-trichloro-s-triazine with free hippuric acid is measured spectrophoto metrically at 382 nm. The IC50 values are defined as the concentration of test substance which reduces by 50% the cleavage of hippuryl-histidyl-leucine by antiotensin converting enzyme under the aforementioned conditions.
The results obtained in the foregoing test using representative compounds of formula I as the test substance are compiled in the following Table: […]

| IC50 [nM] | SMILES |
| --- | --- |
| 51 | O=C(O)[C@@H]1CCCN2C(=O)CN(Cc3ccccc3)C(CS)C(=O)N12 (single isomer, unassigned) [Compound D] |
| 19 | O=C(O)[C@@H]1CCCN2C(=O)CCCC(CS)C(=O)N12 (stereo partly drawn) [Compound C, decahydro-10(R,S)-mercaptomethyl-6,11-dioxo-6H-pyridazo[1,2-a][1,2]diazocine-1(S)-carboxylic acid] |
| 4 | O=C(O)[C@@H]1CCCN2C(=O)CC[C@H](CS)C(=O)N12 [Compound A, octahydro-9(S)-mercaptomethyl-6,10-dioxo-6H-pyridazo[1,2-a][1,2]diazepine-1(S)-carboxylic acid] |
| 2.6 | O=C(O)[C@@H]1CCCN2CCC[C@H](CS)C(=O)N12 [Compound B, octahydro-9(S)-mercaptomethyl-10-oxo-pyridazo[1,2-a][1,2]diazepine-1(S)-carboxylic acid] |
